This is an account of results in patent US10829499B2, “Tetracyclic heterocycle compounds useful as HIV integrase inhibitors” (MERCK SHARP & DOHME CORP., priority 2016, dated 2020).

SMILES strings stand for the structures. Like-named read-outs stand apart in the source and are kept apart here.

This assay relates to HIV-1 (NL4-3 strain). Description: Assay for Inhibition of HIV Replication (kinetic assay, MT4-gag-GFP reporter cell line; VIKING). It is filed as cell-based. How it is done: This assay is a kinetic assay that employs a reporter cell line (MT4-gag-GFP) to quantify the number of new cells infected in each round of replication.
MT4-GFP cells (250,000 cells/ml) were bulk-infected with HIV-1 (NL4-3 strain) at low multiplicity of infection (MOI) in RPMI cell culture medium+10% FBS for 24 hours. Cells were then washed once in RPMI cell culture medium+10% FBS and resuspended in RPMI cell culture medium+0% or 10% or 100% normal human serum (NHS). Test compounds were serial-diluted in DMSO on an ECHO® liquid handler. The infected MT4-GFP cells were added to a 384-well poly-D-lysine coated black plate with clear bottom in which the diluted test compounds were placed. The cells were seeded at 8,000 cells per well and the final DMSO concentration was 0.4%. The infected cells (Green GFP cells) were quantified at both 24 and 48 hours post incubation using Acumen eX3. Viral reproductive ratio (R0) was determined using the number of infected cells at 48 hours divided by the number of infected cells at 24 hours. Percent viral growth inhibition was calculated by [1-(R-Rtripledrug),/(RDMSO-Rtripledrug)]*100. Compound potency IP or IC50 was determined by a 4-parameter dose response curve analysis. In vitro potency in the cell-based assay in the absence of normal human serum (NHS) and the presence of 100% NHS.

Setting [1] is: MT4-GFP cells infected with HIV-1 NL4-3, 0% normal human serum (NHS), read-out: VIKING IP50 (nM) with 0% NHS.
[2] abbreviates: MT4-GFP cells infected with HIV-1 NL4-3, 100% normal human serum (NHS), read-out: VIKING IP50 (nM) with 100% NHS.
[3] abbreviates: Human immunodeficiency virus 1, NL43, MT4-GFP cells infected with HIV-1 NL4-3, 0% normal human serum (NHS), read-out: VIKING IP50 (nM) with 0% NHS.
[4] abbreviates: Human immunodeficiency virus 1, NL43, MT4-GFP cells infected with HIV-1 NL4-3, 100% normal human serum (NHS), read-out: VIKING IP50 (nM) with 100% NHS.

For the compound `O=C(NCc1c(F)cc(F)cc1F)c1c2n3c(c(O)c1=O)C(=O)N1CCOC1C3CC2` (single isomer, unassigned) [Compound 21], the IC50 by setting is: under setting [1], 0.605 nM; under setting [2], 158 nM.
For `O=C(NCc1ccc(F)c(Cl)c1)c1c2n3c(c(O)c1=O)C(=O)N1CCOC1C3CC2` (single isomer, unassigned) [Compound 22], the IC50 was determined as 0.895 nM under setting [3] and 503 nM under setting [2].
For `O=C(NCc1ccc(F)c(Cl)c1)c1c2n3c(c(O)c1=O)C(=O)N1CCOC1C3CC2` (single isomer, unassigned) [Compound 23], the IC50 is 1.06 nM under setting [1] and 2190 nM under setting [2].
Turning to `O=C(NCc1ccc(F)c(Cl)c1)c1c2n3c(c(O)c1=O)C(=O)N1CCOC1C3CC2` (single isomer, unassigned) [Compound 24], the IC50 reads like this: under setting [4], 8000 nM; under setting [1], 0.622 nM.
As for `O=C(NCc1ccc(F)c(Cl)c1)c1c2n3c(c(O)c1=O)C(=O)N1CCOC1C3CC2` (single isomer, unassigned) [Compound 25], the IC50 under setting [1] worked out at 0.809 nM and the IC50 under setting [2] stood at 2540 nM.
On to `C[C@H]1COC2C3CCc4c(C(=O)NCc5ccc(F)cc5F)c(=O)c(O)c(n43)C(=O)N21` (single isomer, unassigned) [Compound 27], for which the IC50 reads like this: under setting [3], 0.313 nM; under setting [2], 956 nM.
With `C[C@H]1COC2C3CCc4c(C(=O)NCc5ccc(F)cc5F)c(=O)c(O)c(n43)C(=O)N21` (single isomer, unassigned) [Compound 28], the IC50 came out at 0.401 nM under setting [1] and 257 nM under setting [2].
Turning to `C[C@H]1COC2C3CCc4c(C(=O)NCc5cccc(Cl)c5F)c(=O)c(O)c(n43)C(=O)N21` (single isomer, unassigned) [Compound 29], the IC50 runs as follows: under setting [3], 0.412 nM; under setting [2], 3410 nM.
For the compound `C[C@H]1COC2C3CCc4c(C(=O)NCc5cccc(Cl)c5F)c(=O)c(O)c(n43)C(=O)N21` (single isomer, unassigned) [Compound 30], the IC50 stood at 0.536 nM under setting [1] and 838 nM under setting [2].
With `C[C@H]1COC2C3CCc4c(C(=O)NCc5cccc(Cl)c5F)c(=O)c(O)c(n43)C(=O)N21` (single isomer, unassigned) [Compound 31], the IC50 runs as follows: under setting [1], 0.418 nM; under setting [2], 197 nM.
Take `C[C@@H]1COC2C3CCc4c(C(=O)NCc5ccc(F)cc5F)c(=O)c(O)c(n43)C(=O)N21` (single isomer, unassigned) [Compound 33]: the IC50 by setting is: under setting [3], 0.543 nM; under setting [4], 1940 nM.
In the case of `C[C@@H]1COC2C3CCc4c(C(=O)NCc5ccc(F)cc5F)c(=O)c(O)c(n43)C(=O)N21` (single isomer, unassigned) [Compound 34], the IC50 runs as follows: under setting [1], 0.635 nM; under setting [2], 1560 nM.
As for `C[C@@H]1COC2C3CCc4c(C(=O)NCc5cccc(Cl)c5F)c(=O)c(O)c(n43)C(=O)N21` (single isomer, unassigned) [Compound 36], the IC50 is, setting by setting: under setting [3], 0.826 nM; under setting [4], 1060 nM.
Regarding `C[C@@H]1COC2C3CCc4c(C(=O)NCc5cccc(Cl)c5F)c(=O)c(O)c(n43)C(=O)N21` (single isomer, unassigned) [Compound 37], the IC50 under setting [1] was 0.546 nM and the IC50 under setting [2] came out at 1690 nM.
On to `C[C@@H]1CN2C(=O)c3c(O)c(=O)c(C(=O)NCc4cccc(Cl)c4F)c4n3C(CC4)C2O1` (single isomer, unassigned) [Compound 39], for which the IC50 under setting [4] was determined as 8000 nM and the IC50 under setting [1] was 0.575 nM.
Turning to `C[C@@H]1CN2C(=O)c3c(O)c(=O)c(C(=O)NCc4cccc(Cl)c4F)c4n3C(CC4)C2O1` (single isomer, unassigned) [Compound 40], the IC50 under setting [1] worked out at 1.84 nM and the IC50 under setting [2] is 8000 nM.
With `C[C@@H]1CN2C(=O)c3c(O)c(=O)c(C(=O)NCc4cccc(Cl)c4F)c4n3C(CC4)C2O1` (single isomer, unassigned) [Compound 41], the IC50 is, setting by setting: under setting [1], 0.854 nM; under setting [2], 2380 nM.
For `C[C@H]1CN2C(=O)c3c(O)c(=O)c(C(=O)NCc4cccc(Cl)c4F)c4n3C(CC4)C2O1` (single isomer, unassigned) [Compound 43], in that order: 1.06 nM and 18.2 nM.
As to `C[C@H]1CN2C(=O)c3c(O)c(=O)c(C(=O)NCc4cccc(Cl)c4F)c4n3C(CC4)C2O1` (single isomer, unassigned) [Compound 44], the IC50 reads like this: under setting [1], 0.879 nM; under setting [2], 378 nM.
As to `C[C@H]1CN2C(=O)c3c(O)c(=O)c(C(=O)NCc4cccc(Cl)c4F)c4n3C(CC4)C2O1` (single isomer, unassigned) [Compound 45], the IC50 came out at 5.81 nM under setting [1] and 486 nM under setting [2].
In the case of `O=C(NCc1cccc(Cl)c1F)c1c2n3c(c(O)c1=O)C(=O)N1CCCO[C@@H]1[C@@H]3CC2` (single isomer, unassigned) [Compound 48], the IC50 reads like this: under setting [3], 1.31 nM; under setting [4], 27.3 nM.
`O=C(NCc1cccc(Cl)c1F)c1c2n3c(c(O)c1=O)C(=O)N1CCCOC1C3CC2` (single isomer, unassigned) [Compound 49]: the IC50 is, setting by setting: under setting [3], 0.96 nM; under setting [4], 1190 nM.
Regarding `O=C(NCc1cccc(Cl)c1F)c1c2n3c(c(O)c1=O)C(=O)N1CCCOC1C3CC2` (single isomer, unassigned) [Compound 50], the IC50 was found to be 0.901 nM under setting [1] and 1070 nM under setting [2].
With `O=C(NCc1ccc(F)cc1)c1c2n3c(c(O)c1=O)C(=O)N1CCCOC1C3CC2` (single isomer, unassigned) [Compound 51], the IC50 runs as follows: under setting [3], 1.25 nM; under setting [2], 32.6 nM.
Turning to `O=C(NCc1ccc(F)cc1)c1c2n3c(c(O)c1=O)C(=O)N1CCCOC1C3CC2` (single isomer, unassigned) [Compound 52], the IC50 is 1.29 nM under setting [1] and 3380 nM under setting [2].
For `O=C(NCc1ccc(F)cc1)c1c2n3c(c(O)c1=O)C(=O)N1CCCOC1C3CC2` (single isomer, unassigned) [Compound 53], in that order: 0.963 nM and 393 nM.
Regarding `O=C(NCc1ccc(F)cc1)c1c2n3c(c(O)c1=O)C(=O)N1CCCOC1C3CC2` (single isomer, unassigned) [Compound 54], the IC50 stood at 0.654 nM under setting [1] and 904 nM under setting [2].
For `O=C(NCc1ccc(F)cc1F)c1c2n3c(c(O)c1=O)C(=O)N1CCCOC1C3CC2` (single isomer, unassigned) [Compound 55], the IC50 runs as follows: under setting [3], 1.03 nM; under setting [2], 39.5 nM.
With `O=C(NCc1ccc(F)cc1F)c1c2n3c(c(O)c1=O)C(=O)N1CCCOC1C3CC2` (single isomer, unassigned) [Compound 56], the IC50 runs as follows: under setting [1], 0.701 nM; under setting [2], 1800 nM.
For the compound `O=C(NCc1ccc(F)cc1F)c1c2n3c(c(O)c1=O)C(=O)N1CCCOC1C3CC2` (single isomer, unassigned) [Compound 57], the IC50 reads like this: under setting [1], 0.919 nM; under setting [2], 871 nM.
In the case of `O=C(NCc1ccc(F)cc1F)c1c2n3c(c(O)c1=O)C(=O)N1CCCOC1C3CC2` (single isomer, unassigned) [Compound 58], the IC50 stood at 0.845 nM under setting [1] and 1520 nM under setting [2].
For `C[C@H]1CCOC2C3CCc4c(C(=O)NCc5ccc(F)cc5F)c(=O)c(O)c(n43)C(=O)N21` (single isomer, unassigned) [Compound 61], the IC50 under setting [4] is 8000 nM and the IC50 under setting [1] was 22.1 nM.
